Data taken from patent publication US20070087988A1, “Hematopoietic progenitor kinase 1 for modulation of an immune response” (New York University, priority 2005, published 2007).

Experiments:
[1] = tested on: HPK1; assay: HPK1 immune complex in vitro kinase (IVK) assay, endogenous HPK1 from treated Jurkat cells; type: cell-based, human; conditions: for PGE2-induced HPK1 activity: Jurkat cells pretreated with 10 μM H-89, then PGE2; for HPK1 kinase activity (IVK) after phosphatase inhibitor: Jurkat cells, 10 min at 37° C., 100 nM calyculin A, 10 nM okadaic acid, 2 μg/ml cyclosporine A, 10 nM pervanadate
[2] = target: HA-tagged murine HPK1 point mutant R169K (UniProt P70218)
[3] = target: HA-tagged murine HPK1 point mutant S171A (UniProt P70218)
[4] = target: HA-tagged murine HPK1 point mutant R168K (UniProt P70218)

O=S(=O)(NCCNC/C=C/c1ccc(Br)cc1)c1cccc2cnccc12 [H-89]
PGE2-induced HPK1 activity [1]: blocked | PGE2-induced HPK1 activity ([1]; listed as H89): blocks PGE2-induced HPK1 activation

COC[C@@H]([C@H](O)[C@H](O)C(=O)NCC[C@H](C)c1nc(/C=C/C[C@@H]2O[C@]3(C[C@@H](O)[C@@H]2C)O[C@H]([C@H](C[C@H](O)[C@H](C)[C@H](O)[C@H](C)/C=C(C)/C(C)=C/C=C/C(C)=C\C#N)OC)[C@H](OP(=O)(O)O)C3(C)C)co1)N(C)C [calyculin A]
HPK1 kinase activity (IVK) after phosphatase inhibitor [1]: activated HPK1 kinase activity

C=C1[C@@H](O)[C@@H]2O[C@]3(CC[C@H](/C=C/[C@@H](C)[C@@H]4CC(C)=C[C@@]5(O[C@H](C[C@@](C)(O)C(=O)O)CC[C@H]5O)O4)O3)CC[C@H]2O[C@@H]1[C@@H](O)C[C@H](C)[C@H]1O[C@@]2(CCCCO2)CC[C@H]1C [okadaic acid]
HPK1 kinase activity (IVK) after phosphatase inhibitor [1]: activated HPK1 kinase activity

cAMP-dependent protein kinase A (PKA), endogenous in Jurkat T cells
HPK1 kinase activity (IVK assay) in response to PGE2 stimulation [2]: Arginine to lysine mutations at either residue 168 or 169 of HPK1 reduced the responsiveness to PGE2 stimulation by approximately 90% | HPK1 kinase activity (IVK assay) in response to PGE2 stimulation [3]: mutation of serine 171 ablated the response of HPK1 to PGE2 stimulation signals | HPK1 kinase activity (IVK assay) in response to PGE2 stimulation [4]: Arginine to lysine mutations at either residue 168 or 169 of HPK1 reduced the responsiveness to PGE2 stimulation by approximately 90%

cholera toxin
HPK1 kinase activity (IVK) after PKA activator [1]: robustly induced HPK1 kinase activity

pervanadate
HPK1 kinase activity (IVK) after phosphatase inhibitor [1]: induced a response in HPK1 catalytic activity
